What was measured:
H1 = H1 (Homo sapiens (Human), UniProt P35367); assay: H1 binding assay ([3H]pyrilamine, HEK293 stable cell line membranes)
Protocol: Example 25. H1 and 5-HT2A Binding Assay Protocol
(§1) The testing compounds were diluted with DMSO, starting at 2 mM, with 8-points and 5-fold serial dilutions. Ketanserin and Pyrilamine were diluted with DMSO, starting at 0.2 mM, with 8-points and 5-fold serial dilution.
(§2) 1 μl of a compounds of the present disclosure and either reference compound (Table C) were transferred to assay plates. 1 μl of 0.2 mM Ketanserin or Pyrilamine was transferred to an assay plate according to the plate map for nonspecific binding (Low control: LC). 1 μl of DMSO was transferred to an assay plate according to plate map for total binding (High control: HC).
(§3) 100 μlof membrane stocks were dispensed into the plates, following the plate map. 100 of radio ligand was added. The plates were sealed and shaken at 300 rpm at room temperature for 1 hour. The Unifilter-96 GF/C filter plates were soaked with 50 of 0.3% PEI per well for at least 0.5 hour at room temperature.
(§4) When the binding assays were complete, the reaction mixture was filtered through GF/C plates using Perkin Elmer Filtermate Harvester, and then each plate was washed 4 times with cold wash buffer. The filter plates were dried for 1 hour at 50 degrees. After drying, the bottom of the filter plate wells were sealed using Perkin Elmer Unifilter-96 backing seal tape. 50 μl of Perkin Elmer Microscint 20 cocktail was added. The top of the filter plates were sealed with Perkin Elmer TopSeal-A sealing film.
(§5) ^3H trapped on filters were counted using Perkin Elmer MicroBeta2 Reader. Inhibition constants were calculated using the following equation:
(§6) [formula] The data was analyzed using Prism 5. The model used was “log(inhibitor) vs. response—Variable slope” to fit the data and calculate IC50. The IC50 was then converted to Ki using following equation: Ki=IC50/(1+L/Kd). L is the radioligand concentration in the reaction system; Kd is the affinity of radioligand to the receptor.

5-HT2A = 5-HT2A (Homo sapiens (Human), UniProt P28223); assay: 5-HT2A binding assay ([3H]-Ketanserin, HEK293 stable cell line membranes)
Protocol: H1 and 5-HT2A Binding Assay Protocol
as §1, §2, §3, §4, §5, §6

5-HT2C = 5-HT2C (Homo sapiens (Human), UniProt P28335); assay: 5-HT2C binding assay ([3H]-Mesulergine, HEK293 membranes); details: Table L, class symbols
Protocol: 5-HT2C Binding Assay Protocol
The testing compounds were diluted with DMSO, starting at 2 mM, with 8-points and 5-fold serial dilutions.
1 μL of a compound of the present disclosure the reference compound (Table J) was transferred to an assay plate. […] 1 μL of DMSO was transferred to an assay plate according to the plate map for total binding (High control: HC).
as §4, with “Unifilter-96 GF/C filter plates were soaked with 50 μL of 0.3% PEI per well for about 0.5 hours at room temperature. When” for “When”, “through the” for “through”, “GF/C filter” for “GF/C”, “and” for “and then”, “50° C.” for “50 degrees.”, “μL” for “μl”
as §5
[formula] The data was analyzed using Prism 5. The model used was “log(inhibitor) vs. response—Variable slope” to fit the data and calculate IC50. The IC50 was then converted to Ki using the following equation: Ki=IC50/(1+L/Kd), wherein L is the radioligand concentration in the reaction system; Kd is the affinity of radioligand to the receptor.

5-HT2A, sequence (P28223 whole entry, species assumed): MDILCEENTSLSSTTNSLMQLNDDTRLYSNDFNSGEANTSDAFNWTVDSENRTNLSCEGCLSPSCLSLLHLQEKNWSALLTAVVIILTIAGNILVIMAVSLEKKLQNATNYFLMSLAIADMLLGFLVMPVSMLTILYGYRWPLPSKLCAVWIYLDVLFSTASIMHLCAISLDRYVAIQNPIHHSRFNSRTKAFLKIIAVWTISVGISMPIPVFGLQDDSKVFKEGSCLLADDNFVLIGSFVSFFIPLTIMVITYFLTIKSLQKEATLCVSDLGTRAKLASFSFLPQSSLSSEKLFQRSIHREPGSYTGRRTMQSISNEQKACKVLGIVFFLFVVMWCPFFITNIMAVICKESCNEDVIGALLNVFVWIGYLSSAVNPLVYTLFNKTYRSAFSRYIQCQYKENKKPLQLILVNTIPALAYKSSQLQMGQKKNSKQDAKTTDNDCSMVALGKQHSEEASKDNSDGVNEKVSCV
5-HT2C, sequence (P28335 33-458): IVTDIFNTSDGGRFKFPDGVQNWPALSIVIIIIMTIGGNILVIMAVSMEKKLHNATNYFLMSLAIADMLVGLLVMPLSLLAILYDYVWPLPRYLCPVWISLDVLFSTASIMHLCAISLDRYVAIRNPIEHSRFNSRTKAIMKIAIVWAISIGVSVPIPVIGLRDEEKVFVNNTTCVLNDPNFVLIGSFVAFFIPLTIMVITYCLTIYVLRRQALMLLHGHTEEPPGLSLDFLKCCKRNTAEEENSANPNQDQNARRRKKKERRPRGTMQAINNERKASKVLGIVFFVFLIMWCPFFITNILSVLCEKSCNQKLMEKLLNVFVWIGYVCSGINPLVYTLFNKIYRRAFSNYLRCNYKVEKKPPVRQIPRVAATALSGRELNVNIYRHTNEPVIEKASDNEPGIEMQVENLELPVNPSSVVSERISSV
H1, sequence (P35367 whole entry): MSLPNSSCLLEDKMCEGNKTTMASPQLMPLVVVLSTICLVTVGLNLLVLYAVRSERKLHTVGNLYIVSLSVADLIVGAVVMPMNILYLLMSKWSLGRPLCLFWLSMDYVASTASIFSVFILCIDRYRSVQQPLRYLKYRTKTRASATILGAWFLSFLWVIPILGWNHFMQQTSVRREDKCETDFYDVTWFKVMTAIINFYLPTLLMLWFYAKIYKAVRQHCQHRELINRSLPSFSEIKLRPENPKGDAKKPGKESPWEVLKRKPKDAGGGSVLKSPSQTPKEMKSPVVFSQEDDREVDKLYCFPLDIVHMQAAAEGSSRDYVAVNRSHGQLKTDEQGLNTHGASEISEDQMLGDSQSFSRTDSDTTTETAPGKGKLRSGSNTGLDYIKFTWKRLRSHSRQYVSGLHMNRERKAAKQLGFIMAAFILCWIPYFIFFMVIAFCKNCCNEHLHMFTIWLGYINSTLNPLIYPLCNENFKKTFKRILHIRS

| SMILES | Ki (H1; numeric values) [nM] | Ki (5-HT2A; numeric values) [nM] | Ki (H1; Table E, class symbols) [nM] | Ki (5-HT2A; Table F, class symbols) [nM] | Ki (5-HT2C) [nM] |
| --- | --- | --- | --- | --- | --- |
| CC(CN1CCN(C2=Nc3ccccc3Cc3ccccc32)CC1)C(=O)O (stereo not shown) [A-1, 3-(4-(11H-dibenzo[b,e]azepin-6-yl)piperazin-1-yl)-2-methylpropanoic acid, reference compound] | 104 | 1380 | – | – | – |
| Cc1ccc2c(c1)Oc1cc(Cl)ccc1N=C2N1CCN(CC(C)(C)C(=O)O)CC1 [Compound No. 1, 3-(4-(7-chloro-3-methyldibenzo[b,f][1,4]oxazepin-11-yl)piperazin-1-yl)-2,2-dimethylpropanoic acid] | – | – | 1 to 25 | 1 to 25 | > 500 |
| CC(C)c1ccc2c(c1)Oc1cc(Cl)ccc1N=C2N1CCN(CC(C)(C)C(=O)O)CC1 [Compound No. 2, 3-(4-(7-chloro-3-isopropyldibenzo[b,f][1,4]oxazepin-11-yl)piperazin-1-yl)-2,2-dimethylpropanoic acid] | – | – | 25 to 50 | 1 to 25 | – |
| CCc1ccc2c(c1)Oc1cc(Cl)ccc1N=C2N1CCN(CC(C)(C)C(=O)O)CC1 [Compound No. 3, 3-(4-(7-chloro-3-ethyldibenzo[b,f][1,4]oxazepin-11-yl)piperazin-1-yl)-2,2-dimethylpropanoic acid] | – | – | 25 to 50 | 1 to 25 | – |
| CSc1ccc2c(c1)Oc1cc(Cl)ccc1N=C2N1CCN(CC(C)(C)C(=O)O)CC1 [Compound No. 4, 3-(4-(7-chloro-3-(methylthio)dibenzo[b,f][1,4]oxazepin-11-yl)piperazin-1-yl)-2,2-dimethylpropanoic acid] | – | – | 1 to 25 | 1 to 25 | – |
| CCCc1ccc2c(c1)Oc1cc(Cl)ccc1N=C2N1CCN(CC(C)(C)C(=O)O)CC1 [Compound No. 5, 3-(4-(7-chloro-3-propyldibenzo[b,f][1,4]oxazepin-11-yl)piperazin-1-yl)-2,2-dimethylpropanoic acid] | – | – | 25 to 50 | 1 to 25 | – |
| Cc1ccc2c(c1)Oc1cc(C)ccc1C(N1CCN(CC3(C(=O)O)CC3)CC1)=N2 [Compound No. 9, 1-((4-(3,7-dimethyldibenzo[b,f][1,4]oxazepin-11-yl)piperazin-1-yl)methyl)cyclopropane-1-carboxylic acid] | – | – | > 50 | 1 to 25 | – |
| O=C(O)C1(CN2CCN(C3=Nc4ccc(F)cc4Oc4cc(F)ccc43)CC2)CC1 [Compound No. 10, 1-((4-(3,7-difluorodibenzo[b,f][1,4]oxazepin-11-yl)piperazin-1-yl)methyl)cyclopropane-1-carboxylic acid] | – | – | 1 to 25 | 1 to 25 | – |
| CC(C)(CN1CCN(C2=Nc3ccc(F)cc3Oc3cc(F)ccc32)CC1)C(=O)O [Compound No. 11, 3-(4-(3,7-difluorodibenzo[b,f][1,4]oxazepin-11-yl)piperazin-1-yl)-2,2-dimethylpropanoic acid] | – | – | > 50 | 1 to 25 | – |
| O=C(O)C1(CN2CCN(C3=Nc4ccccc4Cc4ccccc43)CC2)CC1 [Compound No. 12, 1-((4-(11H-dibenzo[b,e]azepin-6-yl)piperazin-1-yl)methyl)cyclopropane-1-carboxylic acid] | – | – | 1 to 25 | > 50 | – |
| Cc1ccc2c(c1)Oc1cc(Cl)ccc1N=C2N1CCN(CC2(C(=O)O)CC2)CC1 [Compound No. 13, 1-((4-(7-chloro-3-methyldibenzo[b,f][1,4]oxazepin-11-yl)piperazin-1-yl)methyl)cyclopropane-1-carboxylic acid] | – | – | 25 to 50 | 1 to 25 | – |
| CCc1ccc2c(c1)Oc1cc(C)ccc1N=C2N1CCN(CC2(C(=O)O)CC2)CC1 [Compound No. 14, 1-((4-(3-ethyl-7-methyldibenzo[b,f][1,4]oxazepin-11-yl)piperazin-1-yl)methyl)cyclopropane-1-carboxylic acid] | – | – | > 50 | 1 to 25 | – |
| Cc1ccc2c(c1)Oc1cc(C(F)F)ccc1N=C2N1CCN(CC(C)(C)C(=O)O)CC1 [Compound No. 16, 3-(4-(7-(difluoromethyl)-3-methyldibenzo[b,f][1,4]oxazepin-11-yl)piperazin-1-yl)-2,2-dimethylpropanoic acid] | – | – | > 50 | > 50 | – |
| Cc1ccc2c(c1)Oc1cc(F)ccc1C(N1CCN(CC(C)(C)C(=O)O)CC1)=N2 [Compound No. 17, 3-(4-(3-fluoro-7-methyldibenzo[b,f][1,4]oxazepin-11-yl)piperazin-1-yl)-2,2-dimethylpropanoic acid] | – | – | 1 to 25 | 1 to 25 | – |
| Cc1ccc2c(c1)Oc1cc(F)ccc1N=C2N1CCN(CC2(C(=O)O)CC2)CC1 [Compound No. 18, 1-((4-(7-fluoro-3-methyldibenzo[b,f][1,4]oxazepin-11-yl)piperazin-1-yl)methyl)cyclopropane-1-carboxylic acid] | – | – | 1 to 25 | 25 to 50 | – |
| Cc1ccc2c(c1)Oc1cc(F)ccc1C(N1CCN(CC3(C(=O)O)CC3)CC1)=N2 [Compound No. 19, 1-((4-(3-fluoro-7-methyldibenzo[b,f][1,4]oxazepin-11-yl)piperazin-1-yl)methyl)cyclopropane-1-carboxylic acid] | – | – | 25 to 50 | 1 to 25 | – |
| COc1ccc2c(c1)Oc1cc(Cl)ccc1N=C2N1CCN(CC(C)(C)C(=O)O)CC1 [Compound No. 20, 3-(4-(7-chloro-3-methoxydibenzo[b,f][1,4]oxazepin-11-yl)piperazin-1-yl)-2,2-dimethylpropanoic acid] | – | – | > 50 | 25 to 50 | – |
| COc1ccc2c(c1)Oc1cc(F)ccc1N=C2N1CCN(CC(C)(C)C(=O)O)CC1 [Compound No. 21, 3-(4-(7-fluoro-3-methoxydibenzo[b,f][1,4]oxazepin-11-yl)piperazin-1-yl)-2,2-dimethylpropanoic acid] | – | – | > 50 | 25 to 50 | – |
| CC(C)(CN1CCN(C2=Nc3ccccc3Cc3cc(F)ccc32)CC1)C(=O)O [Compound No. 37, 3-(4-(9-fluoro-11H-dibenzo[b,e]azepin-6-yl)piperazin-1-yl)-2,2-dimethylpropanoic acid] | – | – | > 50 | > 50 | > 500 |
| Cc1ccc2c(c1)Cc1ccccc1C(N1CCN(CC(C)(C)C(=O)O)CC1)=N2 [Compound No. 38, 2,2-dimethyl-3-(4-(2-methyl-11H-dibenzo[b,e]azepin-6-yl)piperazin-1-yl)propanoic acid] | – | – | > 50 | > 50 | < 100 |
| Cc1ccc2c(c1)Oc1ccc(F)cc1N=C2N1CCN(CC(C)(C)C(=O)O)CC1 [compound 28, 3-(4-(8-fluoro-3-methyldibenzo[b,f][1,4]oxazepin-11-yl)piperazin-1-yl)-2,2-dimethylpropanoic acid] | – | – | – | – | 100 to 500 |
| Cc1ccc2c(c1)Oc1ccc(Cl)cc1N=C2N1CCN(CC(C)(C)C(=O)O)CC1 [compound 29, 3-(4-(8-chloro-3-methyldibenzo[b,f][1,4]oxazepin-11-yl)piperazin-1-yl)-2,2-dimethylpropanoic acid] | – | – | – | – | < 100 |
| CC(C)(CN1CCN(C2=Nc3cc(F)ccc3Oc3cc(F)ccc32)CC1)C(=O)O [compound 31, 3-(4-(3,8-difluorodibenzo[b,f][1,4]oxazepin-11-yl)piperazin-1-yl)-2,2-dimethylpropanoic acid] | – | – | – | – | < 100 |
| Cc1ccc2c(c1)N=C(N1CCN(CC(C)(C)C(=O)O)CC1)c1ccc(C(F)F)cc1O2 [compound 33, 3-(4-(3-(difluoromethyl)-8-methyldibenzo[b,f][1,4]oxazepin-11-yl)piperazin-1-yl)-2,2-dimethylpropanoic acid] | – | – | – | – | < 100 |
| Cc1ccc2c(c1)C(N1CCN(CC(C)(C)C(=O)O)CC1)=Nc1cc(Cl)ccc1O2 [compound 34, 3-(4-(8-chloro-2-methyldibenzo[b,f][1,4]oxazepin-11-yl)piperazin-1-yl)-2,2-dimethylpropanoic acid] | – | – | – | – | < 100 |
| COc1ccc2c(c1)C(N1CCN(CC(C)(C)C(=O)O)CC1)=Nc1cc(Cl)ccc1O2 [compound 35, 3-(4-(8-chloro-2-methoxydibenzo[b,f][1,4]oxazepin-11-yl)piperazin-1-yl)-2,2-dimethylpropanoic acid] | – | – | – | – | 100 to 500 |

Reference: patent publication US11046651B2, “Piperazine substituted azapine derivatives and uses thereof” (Alairion, Inc., priority 2019, dated 2021)
